Where two headings read alike, the source gives them in different places.
What was measured:
[1] = target: STAT6 (Homo sapiens (Human), UniProt P42226); assay: STAT6 degrader assay (HiBiT, HeLa LgBiT clone 4.14); assay type: cell-based; conditions: HeLa LgBiT clone 4.14, 4-24 h; geometric mean; given for compounds with >80% Emax; read-out: STAT6 degradation DC50
Outline: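 DC50 (nM) comes from luminescence of non-degraded STAT6 read 0.5 h after Nano-GLO addition, following 4-24 h compound exposure at 37° C. Cells were HeLa clone 4.14 expressing LgBiT with a CRISPR HiBiT tag on endogenous STAT6; 50 μM terfenadine set full degradation.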

[2] = tested on: eotaxin-3 release; assay: Human whole blood eotaxin-3 assay (IL-4 stimulated); assay type: cell-based; conditions: human whole blood
Method: Human Whole Blood Eotaxin-3 Assay
This was a human whole blood assay using recombinant human Interleukin 4 to stimulate the blood and measuring the ability of the test compounds to inhibit eotaxin-3 release. Compounds or media were added to the wells and incubated together with human whole blood for 120 minutes at 37° C. Subsequently, recombinant IL-4 was added at a final concentration of 0.4 nM. The plates were incubated for 48 hours.
Test compounds which inhibited eotaxin-3 release upon stimulation with human IL-4 (E. coli) interfered with the signaling in human whole blood are expected to have activity in human beings. […] The EC50 value indicates at which concentration test compounds were active and in inhibiting the eotaxin-3 release. As eotaxin-3 release is down-stream of STAT6 signaling both STAT6 inhibitors and STAT6 degraders are active in this assay.
The data from the human whole blood eotaxin-3 assay is shown below for Examples 3e27, 3e50, 3e17, and 3e51 (where the effect in % is plotted against the test concentration in M on a log-scale).

[3] = IL-4 0.4 nM, 48 hours, geometric mean, given for compounds with >80% Emax, read-out: Eotaxin-3 EC50

Chain of STAT6 (P42226 whole entry): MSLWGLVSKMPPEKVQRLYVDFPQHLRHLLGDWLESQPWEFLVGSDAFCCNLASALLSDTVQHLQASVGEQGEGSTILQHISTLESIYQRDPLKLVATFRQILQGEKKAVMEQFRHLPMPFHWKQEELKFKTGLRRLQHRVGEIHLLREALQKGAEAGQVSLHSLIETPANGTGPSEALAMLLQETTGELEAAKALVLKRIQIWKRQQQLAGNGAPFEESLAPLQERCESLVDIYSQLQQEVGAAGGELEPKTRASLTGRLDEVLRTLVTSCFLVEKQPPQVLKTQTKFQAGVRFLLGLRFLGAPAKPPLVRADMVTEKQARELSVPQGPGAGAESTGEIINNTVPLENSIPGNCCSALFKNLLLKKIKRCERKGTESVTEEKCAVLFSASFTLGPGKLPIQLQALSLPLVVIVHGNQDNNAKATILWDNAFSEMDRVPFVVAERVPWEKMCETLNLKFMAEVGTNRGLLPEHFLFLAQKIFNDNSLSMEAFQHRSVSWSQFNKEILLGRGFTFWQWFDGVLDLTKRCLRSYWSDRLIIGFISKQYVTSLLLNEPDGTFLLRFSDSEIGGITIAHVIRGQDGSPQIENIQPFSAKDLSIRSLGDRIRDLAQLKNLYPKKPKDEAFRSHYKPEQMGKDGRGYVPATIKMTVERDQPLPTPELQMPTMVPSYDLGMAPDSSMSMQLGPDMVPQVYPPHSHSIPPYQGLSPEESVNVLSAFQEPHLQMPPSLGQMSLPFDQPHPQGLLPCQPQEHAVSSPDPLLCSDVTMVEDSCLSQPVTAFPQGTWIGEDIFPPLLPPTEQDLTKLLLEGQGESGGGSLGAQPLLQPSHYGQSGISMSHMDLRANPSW

C[C@H]1CN(Cc2cc3c(cc2F)n(C2CCC(=O)NC2=O)c(=O)n3C)CCN1CC1CCN(C(=O)c2ccc(C3CCN([C@@H](C)c4cc5c(-c6ccc(N)nc6)ccnc5n4C)CC3)cc2)CC1 (mixture of isomers) [Example 3e34, 3-(5-(((S)-4-((1-(4-(1-((S)-1-(4-(6-aminopyridin-3-yl)-1-methyl-1H-pyrrolo[2,3-b]pyridin-2-yl)ethyl)piperidin-4-yl)benzoyl)piperidin-4-yl)methyl)-3-methylpiperazin-1-yl)methyl)-6-fluoro-3-methyl-2-oxo-2,3-dihydro-1H-benzo[d]imidazol-1-yl)piperidine-2,6-dione]
DC50 [1]: 0.4 nM
EC50 [2, 3]: 1.8 nM

C[C@H]1CN(Cc2ccc3c(c2)n(C)c(=O)n3[C@H]2CCC(=O)NC2=O)CCN1CC1CCN(C(=O)c2ccc(C3CCN(Cc4cc5c(-c6ccc(N)nc6)ccnc5n4C)CC3)cc2)CC1 (single isomer, unassigned) [Example 3e19]
DC50 [1]: 0.7 nM
EC50 [2, 3]: 20.9 nM

C[C@H]1CN(Cc2ccc3c(c2)n(C)c(=O)n3[C@@H]2CCC(=O)NC2=O)CCN1CC1CCN(C(=O)c2ccc(C3CCN(Cc4cc5c(-c6ccc(N)nc6)ccnc5n4C)CC3)cc2)CC1 (single isomer, unassigned) [Example 3e20]
DC50 [1]: 1.1 nM
EC50 [2, 3]: 29.8 nM

C[C@H]1CN(Cc2ccc3c(c2)n(C)c(=O)n3[C@H]2CCC(=O)NC2=O)CCN1CC1CCN(C(=O)c2ccc(C3CCN([C@@H](C)c4cc5c(-c6ccc(N)nc6)ccnc5n4C)CC3)cc2)CC1 (single isomer, unassigned) [Example 3e46]
DC50 [1]: 0.3 nM
EC50 [2, 3]: 0.8 nM

C[C@H]1CN(Cc2ccc3c(c2)n(C)c(=O)n3[C@@H]2CCC(=O)NC2=O)CCN1CC1CCN(C(=O)c2ccc(C3CCN([C@@H](C)c4cc5c(-c6ccc(N)nc6)ccnc5n4C)CC3)cc2)CC1 (single isomer, unassigned) [Example 3e49]
DC50 [1]: 0.3 nM
EC50 [2, 3]: 1.4 nM

C[C@H]1CN(Cc2ccc3c(c2)n(C2CC2)c(=O)n3[C@H]2CCC(=O)NC2=O)CCN1CC1CCN(C(=O)c2ccc(C3CCN([C@@H](C)c4cc5c(-c6ccc(N)nc6)ccnc5n4C)CC3)cc2)CC1 (single isomer, unassigned) [Example 3e50]
DC50 [1]: 1 nM
EC50 [2, 3]: 2.3 nM

C[C@H]1CN(Cc2ccc3c(c2)n(C2CC2)c(=O)n3[C@@H]2CCC(=O)NC2=O)CCN1CC1CCN(C(=O)c2ccc(C3CCN([C@@H](C)c4cc5c(-c6ccc(N)nc6)ccnc5n4C)CC3)cc2)CC1 (single isomer, unassigned) [Example 3e51]
DC50 [1]: 0.8 nM
EC50 [2, 3]: 3.1 nM

C[C@H]1CN(Cc2cc3c(cc2F)n([C@@H]2CCC(=O)NC2=O)c(=O)n3C)CCN1CC1CCN(C(=O)c2ccc(C3CCN([C@@H](C)c4cc5c(-c6ccc(N)nc6)ccnc5n4C)CC3)cc2)CC1 (single isomer, unassigned) [Example 3e60]
DC50 [1]: 0.3 nM
EC50 [2, 3]: 1.2 nM

C[C@H]1CN(Cc2cc3c(cc2F)n([C@@H]2CCC(=O)NC2=O)c(=O)n3C2CC2)CCN1CC1CCN(C(=O)c2ccc(C3CCN([C@@H](C)c4cc5c(-c6ccc(N)nc6)ccnc5n4C)CC3)cc2)CC1 (single isomer, unassigned) [Example 3e61]
DC50 [1]: 1.4 nM
EC50 [2, 3]: 3.5 nM

C[C@H]1CN(Cc2cc3c(cc2F)n([C@H]2CCC(=O)NC2=O)c(=O)n3C2CC2)CCN1CC1CCN(C(=O)c2ccc(C3CCN([C@@H](C)c4cc5c(-c6ccc(N)nc6)ccnc5n4C)CC3)cc2)CC1 (single isomer, unassigned) [Example 3e62]
DC50 [1]: 0.8 nM
EC50 [2, 3]: 4.9 nM

C[C@H]1CN(Cc2cc3c(cc2F)n([C@H]2CCC(=O)NC2=O)c(=O)n3C)CCN1CC1CCN(C(=O)c2ccc(C3CCN([C@@H](C)c4cc5c(-c6ccc(N)nc6)ccnc5n4C)CC3)cc2)CC1 (single isomer, unassigned) [Example 3e63]
DC50 [1]: 0.2 nM
EC50 [2, 3]: 1.2 nM

CC[C@H]1CN(Cc2ccc3c(c2)n(C2CC2)c(=O)n3[C@@H]2CCC(=O)NC2=O)CCN1CC1CCN(C(=O)c2ccc(C3CCN([C@@H](C)c4cc5c(-c6ccc(N)nc6)ccnc5n4C)CC3)cc2)CC1 (single isomer, unassigned) [Example 3e64]
DC50 [1]: 2 nM
EC50 [2, 3]: 6 nM

CC[C@H]1CN(Cc2ccc3c(c2)n(C2CC2)c(=O)n3[C@H]2CCC(=O)NC2=O)CCN1CC1CCN(C(=O)c2ccc(C3CCN([C@@H](C)c4cc5c(-c6ccc(N)nc6)ccnc5n4C)CC3)cc2)CC1 (single isomer, unassigned) [Example 3e65]
DC50 [1]: 2.6 nM
EC50 [2, 3]: 5.4 nM

CNc1ccc(-c2ccnc3c2cc([C@H](C)N2CCC(c4ccc(C(=O)N5CCC(CN6CCN(Cc7ccc8c(c7)n(C7CC7)c(=O)n8[C@H]7CCC(=O)NC7=O)C[C@@H]6C)CC5)cc4)CC2)n3C)cn1 (single isomer, unassigned) [Example 3h26]
DC50 [1]: 1.4 nM
EC50 [2, 3]: 3.1 nM

CNc1ccc(-c2ccnc3c2cc([C@H](C)N2CCC(c4ccc(C(=O)N5CCC(CN6CCN(Cc7ccc8c(c7)n(C7CC7)c(=O)n8[C@@H]7CCC(=O)NC7=O)C[C@@H]6C)CC5)cc4)CC2)n3C)cn1 (single isomer, unassigned) [Example 3h27]
DC50 [1]: 1.8 nM
EC50 [2, 3]: 5.8 nM

Cn1c(CN2CCC(c3ccc(C(=O)N4CCC(CN5CCN(Cc6ccc7c(c6)n(C)c(=O)n7C6CCC(=O)NC6=O)CC5)CC4)cc3)CC2)cc2c(-c3ccc(N)nc3)ccnc21 (stereo not drawn) [Example 3e2, 3-(5-((4-((1-(4-(1-((4-(6-aminopyridin-3-yl)-1-methyl-1H-pyrrolo[2,3-b]pyridin-2-yl)methyl)piperidin-4-yl)benzoyl)piperidin-4-yl)methyl)piperazin-1-yl)methyl)-3-methyl-2-oxo-2,3-dihydro-1H-benzo[d]imidazol-1-yl)piperidine-2,6-dione]
DC50 [1]: 4.6 nM
EC50 [2, 3]: 98.7 nM

CNc1ccc(-c2ccnc3c2cc([C@H](C)N2CC=C(c4c(F)cc(C(=O)N5CCC(CN6CCN(Cc7ccc8c(c7)C7(CC7)C(=O)N8C7CCC(=O)NC7=O)C[C@@H]6C)CC5)cc4F)CC2)n3C)cn1 (stereo partly drawn) [Example 3h36, 3-(5′-(((S)-4-((1-(3,5-difluoro-4-(1-((S)-1-(1-methyl-4-(6-(methylamino)pyridin-3-yl)-1H-pyrrolo[2,3-b]pyridin-2-yl)ethyl)-1,2,3,6-tetrahydropyridin-4-yl)benzoyl)piperidin-4-yl)methyl)-3-methylpiperazin-1-yl)methyl)-2′-oxospiro[cyclopropane-1,3′-indolin]-1′-yl)piperidine-2,6-dione]
EC50 [2, 3]: 8.3 nM

CNc1ccc(-c2ccnc3c2cc(CN2CC=C(c4c(F)cc(C(=O)N5CCC(CN6CCN(Cc7ccc8c(c7)C7(CC7)C(=O)N8C7CCC(=O)NC7=O)C[C@@H]6C)CC5)cc4F)CC2)n3C)cn1 (stereo partly drawn) [Example 3h37, 3-(5′-(((S)-4-((1-(3,5-difluoro-4-(1-((1-methyl-4-(6-(methylamino)pyridin-3-yl)-1H-pyrrolo[2,3-b]pyridin-2-yl)methyl)-1,2,3,6-tetrahydropyridin-4-yl)benzoyl)piperidin-4-yl)methyl)-3-methylpiperazin-1-yl)methyl)-2′-oxospiro[cyclopropane-1,3′-indolin]-1′-yl)piperidine-2,6-dione]
EC50 [2, 3]: 95.5 nM

C[C@@H](c1cc2c(-c3ccc(N)nc3)ccnc2n1C)N1CCC(c2ccc(C(=O)N3CCC(CN4CCN(c5cc6c(cc5F)n(C5CCC(=O)NC5=O)c(=O)n6C)CC4)CC3)cc2)CC1 (stereo partly drawn) [Example 3h44, 3-(5-(4-((1-(4-(1-((S)-1-(4-(6-aminopyridin-3-yl)-1-methyl-1H-pyrrolo[2,3-b]pyridin-2-yl)ethyl)piperidin-4-yl)benzoyl)piperidin-4-yl)methyl)piperazin-1-yl)-6-fluoro-3-methyl-2-oxo-2,3-dihydro-1H-benzo[d]imidazol-1-yl)piperidine-2,6-dione]
EC50 [2, 3]: 19.4 nM

CNc1ccc(-c2ccnc3c2cc([C@H](C)N2CC=C(c4c(C)cc(C(=O)N5CCC(CN6CCN(c7cc8c(cc7F)n(C7CCC(=O)NC7=O)c(=O)n8C)CC6)CC5)cc4F)CC2)n3C)cn1 (stereo partly drawn) [Example 3h45, 3-(6-fluoro-5-(4-((1-(3-fluoro-5-methyl-4-(1-((S)-1-(1-methyl-4-(6-(methylamino)pyridin-3-yl)-1H-pyrrolo[2,3-b]pyridin-2-yl)ethyl)-1,2,3,6-tetrahydropyridin-4-yl)benzoyl)piperidin-4-yl)methyl)piperazin-1-yl)-3-methyl-2-oxo-2,3-dihydro-1H-benzo[d]imidazol-1-yl)piperidine-2,6-dione]
EC50 [2, 3]: 6.7 nM

C[C@H]1CN(c2ccc3c(c2)C2(CC2)C(=O)N3C2CCC(=O)NC2=O)CCN1CC1CCN(C(=O)c2ccc(C3CCN([C@@H](C)c4cc5c(-c6ccc(N)nc6)ccnc5n4C)CC3)cc2)CC1 (stereo partly drawn) [Example 3h46, 3-(5′-((S)-4-((1-(4-(1-((S)-1-(4-(6-aminopyridin-3-yl)-1-methyl-1H-pyrrolo[2,3-b]pyridin-2-yl)ethyl)piperidin-4-yl)benzoyl)piperidin-4-yl)methyl)-3-methylpiperazin-1-yl)-2′-oxospiro[cyclopropane-1,3′-indolin]-1′-yl)piperidine-2,6-dione]
EC50 [2, 3]: 230 nM

CCCS(=O)(=O)N[C@H]1C[C@@H](N(C)c2ncnc3[nH]ccc23)C1 [abroticinib, abrocitinib, reference compound]
EC50 ([2]; hIL-4 (E. coli) stimulation, read-out: EC50 of inhibition of eotaxin-3 release (reference compound)): ~450 nM
Emax ([2]; hIL-4 (E. coli) stimulation, read-out: Emax of inhibition of eotaxin-3 release): ~100%

Reference: US20250325677A1, “STAT6 DEGRADERS” (Gilead Sciences, Inc., priority 2024, published 2025)
